Experimental data from US20090170844A1, “Spiro Tetracyclic Compound” (priority 2006, published 2009).

What was measured:
[1] = biological target: T1, human FXa (Homo sapiens, UniProt P00742); assay: Measurement of the human FXa inhibitory action (synthetic substrate S-2222); assay type: biochemical; conditions: human FXa 0.019 U/ml, S-2222 0.4 mM, 37° C., pH 7.5
T1 construct: purchased Enzyme Research Laboratories, Inc
Method: In vitro FXa inhibitory activity may be measured according to the method of Kettner et al. (Journal of Biological Chemistry, vol. 265, pages 18289 to 18297, 1990). To be more specific, human FXa (product of Enzyme Research Laboratories, Inc., 0.019 U/ml) is mixed with the specimens (of the compound of the present invention) prepared by diluting the compound of the invention with dimethylsulfoxide (DMSO) to different concentrations and synthetic substrate S-2222 (Chromogenix AB, 0.4 mM), and the mixtures are incubated at 37° C. in Tris-hydrochloric acid buffer (pH 7.5). The FXa inhibitory activity of the specimen is calculated by measuring the absorbance at 405 nm.
It should be noted that the FXa inhibitory activity of the specimen is generally indicated as IC50.

[2] = tested on: human plasma; assay: Anticoagulant activity in vitro: intrinsic coagulation time (APTT); assay type: biochemical; conditions: APTT reagent, calcium chloride 25 mM
Method: Activated partial thromboplastin time (APTT) is measured in the presence of the test compounds of the present invention diluted at various concentrations. To be more specific, each of the test compounds diluted with DMSO at various concentrations is mixed with human plasma and APTT reagent. The mixture is incubated at 37° C. for 2 minutes; calcium chloride (25 mM) is added to the mixture; and the coagulation time is thereafter measured. It should be noted that the anticoagulant activity of the test compound is described in terms of the concentration required to double the coagulation time for the case where no test compound is added.

T1 sequence (P00742 235-488 limits assumed): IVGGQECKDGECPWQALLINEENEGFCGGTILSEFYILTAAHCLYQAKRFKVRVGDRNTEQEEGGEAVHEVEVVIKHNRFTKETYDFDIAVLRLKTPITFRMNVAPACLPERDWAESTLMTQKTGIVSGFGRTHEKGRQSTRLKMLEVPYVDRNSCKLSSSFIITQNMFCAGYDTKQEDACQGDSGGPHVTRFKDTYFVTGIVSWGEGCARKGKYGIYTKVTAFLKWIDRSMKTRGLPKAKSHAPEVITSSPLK
T1 sequence (P00742 41-179 partner limits assumed): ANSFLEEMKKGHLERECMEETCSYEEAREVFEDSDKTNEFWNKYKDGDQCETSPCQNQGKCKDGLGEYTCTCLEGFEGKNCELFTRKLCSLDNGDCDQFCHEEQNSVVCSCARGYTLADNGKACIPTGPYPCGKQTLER

Row | Structure (SMILES) | IC50 [1] | Concentration when APTT was doubled [2]
1 | O=C1CN(S(=O)(=O)c2ccc3cc(Cl)ccc3c2)CC23CNC(=O)N2C2(CCN(C4=NCCO4)CC2)CN13 (racemic) [Example 2, (±)-3′,5′,8′,11′-tetraaza-11′-(6-chloronaphthalen-2-ylsulfonyl)-1-(2-oxazolinyl)spiro[piperidine-4,6′-tricyclo[6.4.0.0^1,5]dodecane]-4′,9′-dione] | 4.8 nM | 
2 | O=C1CN(S(=O)(=O)c2ccc3cc(Cl)ccc3c2)CC23CNC(=O)N2C2(CCN(c4cccnn4)CC2)CN13 (racemic) [Example 3, (±)-3′,5′,8′,11′-tetraaza-11′-(6-chloronaphthalen-2-ylsulfonyl)-1-(3-pyridazinyl)spiro[piperidine-4,6′-tricyclo[6.4.0.0^1,5]dodecane]-4′,9′-dione] | 4.1 nM | 
3 | CN1CN2C3(CCN(c4ccncc4)CC3)CN3C(=O)CN(S(=O)(=O)c4ccc5cc(Cl)ccc5c4)CC32C1 (racemic) [Example 5, (±)-3′,5′,8′,11′-tetraaza-11′-(6-chloronaphthalen-2-ylsulfonyl)-3′-methyl-1-(4-pyridyl)spiro[piperidine-4,6′-tricyclo[6.4.0.0^1,5]dodecan]-9′-one] | 4 nM | 
4 | CN1CC23CN(S(=O)(=O)c4ccc5cc(Cl)ccc5c4)CC(=O)N2CC2(CCN(C4=NCCCC4)CC2)N3C1=O (single isomer, unassigned; (-)) [Example 8, (−)-3′,5′,8′,11′-tetraaza-11′-(6-chloronaphthalen-2-ylsulfonyl)-1-(3,4,5,6-tetrahydropyridin-2-yl)-3′-methylspiro[piperidine-4,6′-tricyclo[6.4.0.0^1,5]dodecane]-4′,9′-dione] |  | 0.27 µM
5 | CN1CC23CN(S(=O)(=O)c4cc5ccc(Cl)cc5s4)CC(=O)N2CC2(CCN(C4=NCCCO4)CC2)N3C1=O (single isomer, unassigned; (-)) [Example 12, (−)-3′,5′,8′,11′-tetraaza-11′-(6-chlorobenzo[b]thiophen-2-ylsulfonyl)-1-(5,6-dihydro-4H-1,3-oxazin-2-yl)-3′-methylspiro[piperidine-4,6′-tricyclo[6.4.0.0^1,5]dodecane]-4′,9′-dione] |  | 0.34 µM
6 | CN1CC23CN(S(=O)(=O)c4cc5ccc(Cl)cc5s4)CC(=O)N2CC2(CCN(C4=NCCCC4)CC2)N3C1=O (single isomer, unassigned; (-)) [Example 14, (−)-3′,5′,8′,11′-tetraaza-11′-(6-chlorobenzo[b]thiophen-2-ylsulfonyl)-1-(3,4,5,6-tetrahydropyridin-2-yl)-3′-methylspiro[piperidine-4,6′-tricyclo[6.4.0.0^1,5]dodecane]-4′,9′-dione] | 3.6 nM | 0.24 µM

Second part, led by results:

Row | IC50 [1] | Structure (SMILES) | Concentration when APTT was doubled [2]
7 | 4.7 nM | CN1CC23CN(S(=O)(=O)c4cc5ccc(Cl)cc5s4)CC(=O)N2CC2(CCN(C4=NCCO4)CC2)N3C1=O (single isomer, unassigned; (-)) [Example 11, (−)-3′,5′,8′,11′-tetraaza-11′-(6-chlorobenzo[b]thiophen-2-ylsulfonyl)-3′-methyl-1-(2-oxazolinyl)spiro[piperidine-4,6′-tricyclo[6.4.0.0^1,5]dodecane]-4′,9′-dione] | 
8 | 0.4 nM | CN1CC23CN(S(=O)(=O)c4cc5cc(Cl)ccc5[nH]4)CC(=O)N2CC2(CCN(C4=NCCO4)CC2)N3C1=O (single isomer, unassigned; (-)) [Example 17, (−)-3′,5′,8′,11′-tetraaza-11′-(5-chloro-1H-indol-2-ylsulfonyl)-3′-methyl-1-(2-oxazolinyl)spiro[piperidine-4,6′-tricyclo[6.4.0.0^1,5]dodecane]-4′,9′-dione] | 
9 | 4.3 nM | CN1CC23CN(S(=O)(=O)c4cc5cc(Cl)ccc5[nH]4)CC(=O)N2CC2(CCN(C4=NCCCO4)CC2)N3C1=O (single isomer, unassigned; (-)) [Example 18, (−)-3′,5′,8′,11′-tetraaza-11′-(5-chloro-1H-indol-2-ylsulfonyl)-1-(5,6-dihydro-4H-1,3-oxazin-2-yl)-3′-methylspiro[piperidine-4,6′-tricyclo[6.4.0.0^1,5]dodecane]-4′,9′-dione] | 0.26 µM
10 | 3 nM | CN1CC23CN(S(=O)(=O)c4cc5cc(Cl)ccc5[nH]4)CC(=O)N2CC2(CCN(C4=NCCCC4)CC2)N3C1=O (single isomer, unassigned; (-)) [Example 20, (−)-3′,5′,8′,11′-tetraaza-11′-(5-chloro-1H-indol-2-ylsulfonyl)-1-(3,4,5,6-tetrahydropyridin-2-yl)-3′-methylspiro[piperidine-4,6′-tricyclo[6.4.0.0^1,5]dodecane]-4′,9′-dione] | 0.24 µM
11 | 4 nM | CCC(=O)N1CCC2(CC1)CN1C(=O)CN(S(=O)(=O)c3cc4cc(Cl)ccc4[nH]3)CC13CN(C)C(=O)N23 (single isomer, unassigned; (-)) [Example 22, (−)-3′,5′,8′,11′-tetraaza-11′-(5-chloro-1H-indol-2-ylsulfonyl)-3′-methyl-1-propionylspiro[piperidine-4,6′-tricyclo[6.4.0.0^1,5]dodecane]-4′,9′-dione] | 
12 | 2.4 nM | CN1CC23CN(S(=O)(=O)c4ccc5cc(Cl)ccc5c4)CC(=O)N2CC2(CCN(C4=NCCO4)CC2)N3C1=O (single isomer, unassigned; (-)) [Example 29, (−)-3′,5′,8′,11′-tetraaza-11′-(6-chloronaphthalen-2-ylsulfonyl)-3′-methyl-1-(2-oxazolinyl)spiro[piperidine-4,6′-tricyclo[6.4.0.0^1,5]dodecane]-4′,9′-dione] | 
